Results from US5610140A, “Bradykinin receptor antagonists with neurokinin receptor blocking activity” (priority 1994, dated 1997).
“Also recorded” adds a separate entry of the source. Read-outs that look alike come from different tables or passages of the source. Square brackets hold non-standard residues; d marks the D form. Peptide text beside a SMILES is read from it. * marks the point of attachment. X5 = C[C@@H](O)[C@H](NC(=O)CCCN1C(=O)CC(*)C1=O)C(=O)N[C@H](Cc1cn(C=O)c2ccccc12)C(=O)N[C@@H](Cc1ccccc1)C(=O)N(C)Cc1ccccc1; Hyp = O=C(O)[C@@H]1C[C@@H](O)CN1

Legend:
[1] = In vitro stability in rat kidney cortical membranes; format: in vitro ADME; details: Rat Kidney membrane preparation diluted 1:100 with PBS
Method: (§1) Plasma samples were prepared by collection of whole blood from healthy male and female human volunteers or guinea pigs. Samples were collected into culture tubes containing sodium heparin, and were then spun at 4° C. at 2000 rpm for ten minutes. Supernatant fractions were removed by aspiration and stored in vials at -20° C. Rat or porcine lung and kidney cortical membranes were prepared using differential centrifugation. Membrane preparations were stored at -20° C. The test compound was diluted to 1 mM concentration in PBS (0.0132 M phosphate, 0.1454 M NaCl, pH 7.2). Ten microliters of this working solution were delivered into a series of Eppendorf tubes, followed by human or guinea pig plasma (90 uL) or PBS as a control blank, and incubated for various time periods. […] Supernatant fractions were removed, filtered through 0.22 uM filters (Millipore) and analyzed by HPLC (C18, 12-80% acetonitrile in water, both containing 0.1% trifluoroacetic acid, monitoring at 214 nm.
(§2) Porcine kidney preparations were diluted 1:10 with PBS; rat kidney preparations were diluted 1:100 with PBS. […] At various time points the reactions were quenched by the addition of 100 uL of ethanol, centrifuged and analyzed by HPLC as described above. The half-life for the disappearance of the HPLC peak was determined using the computer program ENZFIT (Elsevier). […]

[2] = In vitro stability in porcine kidney cortical membranes; format: in vitro ADME; details: Pig Kidney membrane preparation diluted 1:10 with PBS
Method: as §1, §2

[3] = In vitro stability in human plasma; format: in vitro ADME
Method: as §1, §2

[4] = molecular target: T1, Neurokinin 1 (NK1) receptor (Cavia porcellus, UniProt P30547); experiment: cell-based
[5] = molecular target: T1, Neurokinin 1 (NK1) receptor; details: for NK1 pA2: agonist substance P-O-methyl ester
Water solubility = format: physicochemical; details: in the absence of organic co-solvents
NK1 receptors = NK1 receptors (Homo sapiens, UniProt P25103); details: more potent than FK888; cited from earlier work
[6] = molecular target: T2, Bradykinin 2 (BK2) receptor (Rattus norvegicus, UniProt P25023)
T2 sequence (P25023 1-396): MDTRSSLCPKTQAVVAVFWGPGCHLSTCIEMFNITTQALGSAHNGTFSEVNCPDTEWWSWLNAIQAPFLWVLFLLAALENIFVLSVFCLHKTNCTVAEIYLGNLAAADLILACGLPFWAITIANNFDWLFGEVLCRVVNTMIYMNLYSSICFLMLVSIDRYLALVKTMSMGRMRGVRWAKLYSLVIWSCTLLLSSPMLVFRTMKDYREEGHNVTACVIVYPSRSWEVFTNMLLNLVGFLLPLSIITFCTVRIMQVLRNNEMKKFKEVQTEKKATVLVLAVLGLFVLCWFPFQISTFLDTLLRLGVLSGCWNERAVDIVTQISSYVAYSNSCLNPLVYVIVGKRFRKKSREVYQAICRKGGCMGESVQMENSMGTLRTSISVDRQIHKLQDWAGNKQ

[7] = molecular target: T2, Bradykinin 2 (BK2) receptor; experiment: cell-based
[8] = as reported in the literature; cited from earlier work
[9] = cited from earlier work
[10] = molecular target: T3, isolated guinea pig lung membrane (Cavia porcellus, UniProt P30547); details: read-out: binding constant; cited from earlier work
T3 construct: host or cells: guinea pig lung membrane

[11] = guinea pig ileum, recovery of agonist response after wash-off

T1 sequence (P30547 whole entry): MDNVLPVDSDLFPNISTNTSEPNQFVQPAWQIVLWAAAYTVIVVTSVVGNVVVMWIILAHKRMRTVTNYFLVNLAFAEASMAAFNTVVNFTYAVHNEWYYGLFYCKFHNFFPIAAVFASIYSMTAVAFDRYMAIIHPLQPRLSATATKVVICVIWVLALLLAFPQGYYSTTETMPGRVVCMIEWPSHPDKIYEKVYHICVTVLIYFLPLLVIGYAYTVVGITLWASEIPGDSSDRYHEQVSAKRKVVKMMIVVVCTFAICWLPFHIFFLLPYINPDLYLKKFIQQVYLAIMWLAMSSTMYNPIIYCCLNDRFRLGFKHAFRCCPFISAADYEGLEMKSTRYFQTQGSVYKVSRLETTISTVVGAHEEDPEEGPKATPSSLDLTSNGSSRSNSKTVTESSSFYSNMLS
NK1 receptors, sequence (P25103 whole entry): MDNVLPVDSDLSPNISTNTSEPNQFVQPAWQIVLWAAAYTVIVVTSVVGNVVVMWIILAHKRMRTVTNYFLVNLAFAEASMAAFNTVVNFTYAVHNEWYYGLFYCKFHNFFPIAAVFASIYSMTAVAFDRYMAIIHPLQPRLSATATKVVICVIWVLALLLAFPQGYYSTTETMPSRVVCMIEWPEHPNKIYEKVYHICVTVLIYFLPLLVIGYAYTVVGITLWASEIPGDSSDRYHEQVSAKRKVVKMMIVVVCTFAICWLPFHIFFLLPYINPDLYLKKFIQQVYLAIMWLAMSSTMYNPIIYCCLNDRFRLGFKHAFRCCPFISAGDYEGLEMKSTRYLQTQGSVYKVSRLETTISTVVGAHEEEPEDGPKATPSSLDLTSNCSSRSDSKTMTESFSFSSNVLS
T3 sequence (P30547 whole entry): as the sequence (P30547 whole entry) above

**Q.** Which results are given for `NC(N)=NCCC[C@H](NC(=O)[C@H](Cc1ccccc1)NC(=O)[C@@H]1CCCN1C(=O)[C@H](CO)NC(=O)[C@H](Cc1ccccc1)NC(=O)CNC(=O)[C@@H]1CCCN1C(=O)[C@@H]1CCCN1C(=O)[C@@H](N)CCCN=C(N)N)C(=O)O` [Bradykinin] (H-RPPGFSPFR-OH)?
**A.** Half-life [1]: 7.8 min; Half-life [2]: 3 min; Half-life [3]: 27 min

**Q.** Which results are given for `CC(C)C[C@H](NC(=O)[C@@H](Cc1ccccc1)NC(=O)[C@H](CSC1CC(=O)N(CCCCCCN2C(=O)CC(SC[C@H](NC(=O)[C@H](Cc3ccccc3)NC(=O)CNC(=O)[C@@H]3C[C@@H](O)CN3C(=O)[C@@H]3CCCN3C(=O)[C@H](CCCNC(=N)N)NC(=O)[C@H](N)CCCNC(=N)N)C(=O)N[C@H](Cc3ccccc3)C(=O)N[C@@H](CC(C)C)C(=O)N[C@@H](CCCNC(=N)N)C(=O)O)C2=O)C1=O)NC(=O)[C@H](Cc1ccccc1)NC(=O)CNC(=O)[C@@H]1C[C@@H](O)CN1C(=O)[C@@H]1CCCN1C(=O)[C@H](CCCNC(=N)N)NC(=O)[C@H](N)CCCNC(=N)N)C(=O)N[C@@H](CCCNC(=N)N)C(=O)O` (some centres unmarked) [CP-0127] (HELM PEPTIDE1{[dR].R.P.[Hyp].G.F.C.[dF].L.R}|PEPTIDE2{[dR].R.P.[Hyp].G.F.C.[dF].L.R}|CHEM1{[O=C1CC([*:1])C(=O)N1CCCCCCN1C(=O)CC([*:2])C1=O]}$PEPTIDE1,CHEM1,7:R3-1:R1|PEPTIDE2,CHEM1,7:R3-1:R2$$$V2.0)?
**A.** Half-life [1]: 39.6 min; Half-life [2]: > 360 min; Half-life [3]: 165 min

**Q.** For `C[C@@H](O)[C@H](NC(=O)CCCCCN1C(=O)CC(SCCO)C1=O)C(=O)N[C@H](Cc1cn(C=O)c2ccccc12)C(=O)N[C@@H](Cc1ccccc1)C(=O)N(C)Cc1ccccc1` (some centres unmarked) [CP-0528], which Kb [4] is on record?
**A.** The Kb was 0.316 µM.

**Q.** And the “NK1 % recovery (wash-off)” value [5]?
**A.** The value was 80%.

**Q.** With `C[C@@H](O)[C@H](NC(=O)CCCN1C(=O)CC(SCCO)C1=O)C(=O)N[C@H](Cc1cn(C=O)c2ccccc12)C(=O)N[C@@H](Cc1ccccc1)C(=O)N(C)Cc1ccccc1` (some centres unmarked) [CP-0529] as the molecule, how does the Kb [4] read?
**A.** The Kb was 0.126 µM.

**Q.** What about the “NK1 % recovery (wash-off)” value [5] of the same molecule?
**A.** Its value is 55%.

**Q.** Which water solubility (Water solubility) does the source give for `CN(Cc1ccccc1)C(=O)[C@H](Cc1ccccc1)NC(=O)[C@H](CCCCN)NC(=O)c1c[nH]c2ccccc12` [CP-0533] here?
**A.** The water solubility was “poor solubility in water; also recorded: minimal water solubility”.

**Q.** What about the “NK1 pA2” value ([5]; guinea pig ileum) of the same molecule?
**A.** The value was 6.3.

**Q.** What about the “NK1 % recovery (wash-off)” value [5, 11] of the same molecule?
**A.** Its value is 73%.

**Q.** For `CN(Cc1ccccc1)C(=O)[C@H](Cc1ccc2ccccc2c1)NC(=O)[C@H](CCCCN)NC(=O)c1c[nH]c2ccccc12` [CP-0535], which water solubility (Water solubility) is on record?
**A.** The water solubility was “poor water solubility”.

**Q.** And the “NK1 pA2” value ([5]; guinea pig ileum)?
**A.** The value was 7.5.

**Q.** What about the “NK1 % recovery (wash-off)” value [5, 11] of the same molecule?
**A.** The value was 41%.

**Q.** Which “potency relative to FK888 in binding studies” value (NK1 receptors) does the source give for `COc1ccccc1CN[C@H]1CCCN[C@H]1c1ccccc1` [CP-99994] here?
**A.** Its value is 10 times.

**Q.** Which “BK2 % Recovery (wash-off)” value [6] does the source give for `CC(C)C[C@H](NC(=O)[C@@H](Cc1ccccc1)NC(=O)[C@H](CSC1CC(=O)N(CCCC(=O)N[C@H](C(=O)N[C@H](Cc2cn(C=O)c3ccccc23)C(=O)N[C@@H](Cc2ccccc2)C(=O)N(C)Cc2ccccc2)[C@@H](C)O)C1=O)NC(=O)[C@H](Cc1ccccc1)NC(=O)CNC(=O)[C@@H]1C[C@@H](O)CN1C(=O)[C@@H]1CCCN1C(=O)[C@H](CCCNC(=N)N)NC(=O)[C@H](N)CCCNC(=N)N)C(=O)N[C@@H](CCCNC(=N)N)C(=O)O` (some centres unmarked) [Compound 2] (H-[dR]RP[Hyp]GFC(X5)[dF]LR-OH) here?
**A.** Its value is 20%.

**Q.** What about the Kb [4] of the same molecule?
**A.** Its Kb is 0.126 µM.

**Q.** What about the Kb [7] of the same molecule?
**A.** Its Kb is 0.00631 µM.

**Q.** What about the “NK1 % recovery (wash-off)” value [5] of the same molecule?
**A.** The value was 48%.

**Q.** Which water solubility [8] does the source give for `CN(Cc1ccccc1)C(=O)[C@H](Cc1ccc2ccccc2c1)NC(=O)[C@@H]1C[C@@H](O)CN1C(=O)c1cn(C)c2ccccc12` [FK888] here?
**A.** Its water solubility is “poor water solubility”.

**Q.** With `CC(=O)N[C@H](C(=O)N[C@H](Cc1c[nH]c2ccccc12)C(=O)N[C@@H](Cc1ccccc1)C(=O)N(C)Cc1ccccc1)[C@@H](C)O` [FR113680, Ac-Thr-D-Trp-Phe-N(CH3)Bn, reference compound] as the molecule, how does the in vivo stability [9] read?
**A.** The in vivo stability was “moderate in vivo stability”.

**Q.** And the Ki [10]?
**A.** The Ki was 0.0058 µM.

**Q.** And the Kb [4]?
**A.** Its Kb is 0.1 µM.

**Q.** And the “NK1 % recovery (wash-off)” value [5]?
**A.** Its value is 53%.
